In patent US10344261B2, “Immunomodulatory conjugates” (ASCEND BIOPHARMACEUTICALS LTD, priority 2011, dated 2019):
Like-named read-outs stand apart in the source and are kept apart here.

Legend:
[1] = tested on: PBMC; test: Cytokine release assay to measure IL-6 from PBMC (ELISA); assay type: cell-based, human; details: for stimulation of IL-6 release by PBMC (in words): 6 and 24 hours; for EC50: Homo sapiens
Method: Fresh blood was collected from healthy volunteers and stored in Heparin Sodium tubes. 15 mL of blood was subsequently transferred to a 50 ml centrifugal tube and gently mixed with equal volume of DPBS. 10 ml Ficoll was slowly underlayed using pipette. The tube was centrifuged for 30 minutes at 800 g at RT without break. The buffy coat (containing PBMC) was aspirated at the interface between serum and Ficoll. The PBMC were washed with sufficient DPBS and centrifuged at 900 g to remove the Ficoll. RPMI-1640 Medium was added to the collected PBMC and the number of PBMC determined by counting. 1 ml of blood typically yields at least 1 million of PBMC.
PBMC were counted and cell densities adjusted. 100 μl of cells were added into the required number of wells such that the cell density for the IL-6 assay was 5,000/well. LD1-oxidized mannan conjugates for screening were serially diluted in DMSO. The LD1 solution was added to each well (final concentration of DMSO in assay was not more than 0.03%). The plates were incubated in a CO2 incubator at 37° C. and supernatants collected at 6 and 24 hours. At each time point of collection, the plates were centrifuged at 900 rpm for 4 minutes and the supernatents transferred to another 96 well plate. These were labelled and stored at −80° C. ELISA kits for IL-6 (Invitrogen) were used for quantitation of cytokine released. The ELISAs were performed as described in the manufacturer's instructions. The absorbances were measured by FlexStation 3. A standard curve for each cytokine was drawn each time for analyzing the data.
The Loxorubine (LOX) derivative, LD1, was synthesised and conjugated to oxidized mannan (LD1-OM) as described above. The LOX derivative, LD1, incorporates a hydrazide linkage for conjugation to aldehyde residues of oxidized mannan and an ester linkage between the linker and the LOX. LD1 oxidized mannan conjugates were used to stimulate PBMCs isolated from human donors and IL-6 cytokine release measured by ELISA.

[2] = tested on: MART-1-specific CD8 T cells; test: Priming and recall of MART-1-specific T cell responses (intracellular IFNγ); assay type: cell-based, human; details: PBMC and MoDC from donors BC28 and BC29, 20 μg/ml
Method: MoDC at 2×10^5/ml (for 1:20 MoDC:T cell) in complete AB medium were added to a 24 well plate (1 ml per test condition) followed by protein or >1000 kDa oxidized mannan conjugate (10-20 μg/ml). Four hours later, 4×10^6 CD14 depleted PBMC were added to the wells in 1 ml complete AB medium. After 3 days, 25 U/ml IL-2, 10 ng/ml IL-7 and 10 ng/ml IL-15 was added. The T cells were re-stimulated 7-10 days later with 1×10^5 MoDC loaded with antigen. Twenty four hours following re-stimulation, cultures were supplemented with 25 U/ml IL-2 and again 3-4 days after. T cell cultures were typically analysed after 1 or 2 re-stimulations.
For T cell epitope peptides—Peptide loaded T2 cells (2×10^5/well) were prepared by pulsing with an irrelevant peptide (e.g., CAP-1 10 μg/ml or no peptide) and one with the peptide of interest ([…]) for 1 hour in serum free medium with 1.25 μg/ml β2-microglobulin. T2 cells were added at about a 1:5 ratio (4×10^4/well) in 100 μl to the duplicate T cell wells and incubate for 1 hour at 37° C. 5% CO2. […]
PBMC and MoDC from 2 donors (BC28 and BC29) were used for priming with MART-1 and >1000 kDa oxidized mannan conjugates (20 μg/ml) as described in Example 1. After 1 stimulation, analog and native MART-1 peptide-specific T cell responses were measured using pulsed T2 cells (FIG. 51). […]

C=CCn1c(=O)n([C@@H]2O[C@H](COC(=O)c3ccc(NN)nc3)[C@@H](O)[C@H]2O)c2nc(N)[nH]c(=O)c21 [LD1, ((2R,3S,4R,5R)-5-(7-allyl-2-amino-6,8-dioxo-1,6,7,8-tetrahydropurin-9-yl)-3,4-dihydroxy-tetrahydrofuran-2-yl)methyl 6-hydrazinylnicotinate]
stimulation of IL-6 release by PBMC (in words) ([1]; LOX at 500 μM): did not stimulate IL-6

C=CCn1c(=O)n([C@@H]2O[C@H](CO)[C@@H](O)[C@H]2O)c2nc(N)[nH]c(=O)c21 [LOX, 7-allyl-7,8-dihydro-8-oxo-guanosine]
stimulation of IL-6 release by PBMC (in words) ([1]; LOX at 500 μM): able to stimulate IL-6 release
Amount IL-6 (pg/ml), 6 hr ([1]; 6 hr, LOX at 500 μM): failed to induce IL-6
Amount IL-6 (pg/ml), 24 hr ([1]; 24 hr, LOX at 500 μM): 10 pg/mL
EC50 ([1]; 6 hr, read-out: EC50 of IL-6, 6 hr): > 500 µM
EC50 ([1]; 24 hr, read-out: EC50 of IL-6, 24 hr): > 500 µM

B1: >1000 kDa oxidized mannan-MART-1: recombinant MART-1 protein linked to >1000 kDa oxidized mannan (conjugate, UniProt Q16655 1-118, looked up)
Melanoma antigen recognized …: MPREDAHFIYGYPKKGHGHSYTTAEEAAGIGILTVILGVLLLIGCWYCRRRNGYRALMDKSLHVGTQCALTRRCPQEGFDHRDSKVSLQEKNCEPVVPNAPPAYEKLSAEQSPPPYSP
modifications: conjugated to >1000 kDa oxidized mannan
notes: recombinant MART-1 protein linked to >1000 kDa oxidized mannan
MART-1-specific T cell responses after priming [2]: efficiently responded to analog or native MART-1 peptides presented by T2 cells
MART-1-specific T cell responses after priming ([2]; listed as MART-1 >1000 kDa oxidized mannan): more efficient in priming than unconjugated protein
